Marks after values point to notes of the source that are not given here.
Experiments:
[1] = system: mice; assay: Haloperidol-induced catalepsy model; type: in vivo, mouse; details: for Haloperidol-induced catalepsy (significantly reduced): FIG. 17 (24 hours after administration)
Method: The potential anti-akinetic effect of psilocybin in mice was investigated. Psilocybin (1 mg/kg, 3 mg/kg, or 10 mg/kg), chlorstyril caffeine (CSC), or vehicle was administered one hour, 24 hours, or one week prior to administration of haloperidol.
After administration of haloperidol, a catalepsy test was administered to each mouse. During the test, the forelimbs of the mice were placed on a catalepsy apparatus. The latency time was defined as the time necessary for the mouse to put the forelimbs on the table. The cut off time was set as 3 minutes. Catalepsy was evaluated every 45 minutes for 270 minutes after the Haloperidol injection.

[2] = system: male C57BL/6 mice; assay: Chronic constriction injury (CCI) model of neuropathic pain, von Frey paw withdrawal threshold; type: in vivo, mouse
Method: To determine whether psilocybin may alleviate chronic neuropathic pain, various doses of psilocybin were tested in a mouse model of chronic constriction injury (CCI).
Male C57BL/6 mice (age 6-7 weeks, source: Charles River UK) were housed in standard caging in groups of 2-4, with free access to food (5CR4, Purina) and water (except during placement in the test box) on a 12/12 light/dark cycle.
All animals underwent behavioral testing of mechanical allodynia on three consecutive days (Day −2, Day−1 and Day 0) prior to surgery in order to determine the baseline withdrawal thresholds. Briefly, Static mechanical (tactile) allodynia was assessed by measurement of withdrawal threshold using calibrated (force; g) von-Frey monofilaments (Touch-Test Sensory Evaluator; Scientific Marketing Associates) applied to the plantar surface of the hind-paw. The animals were placed in individual Perspex boxes on a raised metal mesh for 30-40 minutes before the test. A series of graduated von Frey hairs (0.07, 0.16, 0.4, 0.6 and 1 g) was applied in sequence with a protocol of 1 second on 1 second off, repeated 10 times. Each hair was applied perpendicularly to the center of the ventral surface of the paw until it slightly bends. The force applied to the hind-paw of the animal to induce 5 responses out of 10 trials was recorded as paw withdrawal threshold (PWT). Three baseline paw withdrawal thresholds were taken on ipsilateral paws. The mean of the last two readings used as the baseline withdrawal threshold.
Subsequently, surgery was performed under anesthesia (Isoflurane mixed with oxygen, 3:1, 2 L/min) to tie three loose ligatures of prolene (7-0, Ethicon) around the sciatic nerve, with 1 mm spacing between each. The nerve was then returned below the muscle layer and the wound closed using absorbable sutures (Vicryl).
Following recovery from surgery, Von Frey assessment of mechanical allodynia was taken on days 19 and 22. Animals were then ranked and randomized (based on a Latin square design) to treatment groups according to the percentage change (compared to pre-surgery baseline) of the mean mechanical withdrawal threshold observed on days 19 and 22. Only those animals showing a PWT percentage change of >50% from pre-surgery baseline were included in the study.
On day 23, the animals were dosed with psilocybin (1, 3 or 10 mg/kg by intraperitoneal injection) or vehicle (10 mL/kg by intraperitoneal injection). Nerve pain medication Pregabalin (15 mg/kg administered orally) was also used as a positive control. Allodynia was then assessed at 0.5, 4 and 24 hours post-treatment timepoint (PTT).

SMILES: CN(C)CCc1c[nH]c2cccc(OP(=O)(O)O)c12 [Psilocybin, psilocybin]
- Haloperidol-induced catalepsy (significantly reduced) ([1]; 1 mg/kg): 90 s
- Start of positive effect on catalepsy after haloperidol ([1]; 1 mg/kg, FIG. 18 (24 hours after administration)): 135 min
- Time after haloperidol injection of decrease in descent latency ([1]; 1 mg/kg, one hour prior to the test): 270 min
- Time after haloperidol from which descent latency is significantly decreased ([1]; 3 mg/kg, 1 week prior to the test): ≥ 224 min
- Haloperidol-induced catalepsy (significantly reduced) ([1]; 3 mg/kg): 60 s
- Start of reduction in descent latency after haloperidol, lasting to 270 minutes ([1]; 3 mg/kg, FIG. 18 (24 hours after administration)): 45 min
- Time after haloperidol injection from which descent latency is significantly decreased ([1]; 3 mg/kg, one hour prior to the test): ≥ 225 min
- Haloperidol-induced catalepsy (significantly reduced) ([1]; 10 mg/kg): 75 s
- Start of positive effect on catalepsy after haloperidol ([1]; 10 mg/kg, FIG. 18 (24 hours after administration)): 90 min
- Time after haloperidol injection from which descent latency is significantly decreased ([1]; 10 mg/kg, one hour prior to the test): ≥ 180 min
- Force-induced paw withdrawal, mean ([2]; 1 mg/kg IP group, D19-22 Neuropathic baseline (before dosing)): 0.16 g
- Force-induced paw withdrawal, mean ([2]; 1 mg/kg IP group, D-2 D-1 Baseline (before surgery and dosing)): 0.72 g
- Force-induced paw withdrawal, mean ([2]; 1 mg/kg IP, D23 0.5 hours PTT): 0.16 g
- Force-induced paw withdrawal, mean ([2]; 1 mg/kg IP, D23 4 hours PTT): 0.16 g
- Force-induced paw withdrawal, mean ([2]; 1 mg/kg IP, D24 24 hours PTT): 0.15 g
- Force-induced paw withdrawal, mean ([2]; 3 mg/kg IP group, D19-22 Neuropathic baseline (before dosing)): 0.16 g
- Force-induced paw withdrawal, mean ([2]; 3 mg/kg IP group, D-2 D-1 Baseline (before surgery and dosing)): 0.68 g
- Force-induced paw withdrawal, mean ([2]; 3 mg/kg IP, D23 0.5 hours PTT): 0.22 g
- Force-induced paw withdrawal, mean ([2]; 3 mg/kg IP, D23 4 hours PTT): 0.15 g
- Force-induced paw withdrawal, mean ([2]; 3 mg/kg IP, D24 24 hours PTT): 0.25 g
- Force-induced paw withdrawal, mean ([2]; 10 mg/kg IP group, D19-22 Neuropathic baseline (before dosing)): 0.17 g
- Force-induced paw withdrawal, mean ([2]; 10 mg/kg IP group, D-2 D-1 Baseline (before surgery and dosing)): 0.79 g
- Force-induced paw withdrawal, mean ([2]; 10 mg/kg IP, D23 0.5 hours PTT): 0.38* g
- Force-induced paw withdrawal, mean ([2]; 10 mg/kg IP, D23 4 hours PTT): 0.51* g
- Force-induced paw withdrawal, mean ([2]; 10 mg/kg IP, D24 24 hours PTT): 0.25 g

Source: patent publication US12377112B2, “Methods of treating neurocognitive disorders, chronic pain and reducing inflammation” (priority 2019, dated 2025)
